Data taken from ChEMBL document CHEMBL1201862, “PubChem BioAssay data set” (2004).
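48-hour exposure; five concentrations; linearly interpolated endpoints. GI50: concentration for 50% inhibition of growth.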 The source made the active and inactive calls. No stated cut-off is given here; in the data, active = GI50 up to about 1.1 µM and inactive = higher.

Key:
Assay in all cases: growth of human tumour cells (NCI), 48 h
NCI-H522 = test system: NCI-H522
K562 = test system: K562
TK-10 = test system: TK-10
EKVX = test system: EKVX
SNB-75 = test system: SNB-75
786-0 = test system: 786-0
SF-295 = test system: SF-295
IGROV-1 = test system: IGROV-1
OVCAR-8 = test system: OVCAR-8
KM12 = test system: KM12
RXF 393 = test system: RXF 393
M19-MEL = test system: M19-MEL
OVCAR-4 = test system: OVCAR-4
SNB-19 = test system: SNB-19
NCI-H23 = test system: NCI-H23
RPMI-8226 = test system: RPMI-8226
CCRF-CEM = test system: CCRF-CEM

Measured: GI50

Cc1ccccc1C(=O)c1c(O)c2c(c(O)c1Br)CCCC2
inactive: NCI-H522 10.5 µM | K562 21.1 µM | TK-10 17.8 µM | EKVX 17.6 µM | SNB-75 18.7 µM | 786-0 14.5 µM | SF-295 21.2 µM | IGROV-1 20.7 µM | OVCAR-8 17.3 µM | KM12 16.6 µM | RXF 393 18.7 µM | M19-MEL 15.6 µM | OVCAR-4 14.9 µM | SNB-19 23 µM | NCI-H23 26.2 µM | RPMI-8226 20.1 µM

COC(=O)/C(C#N)=C1\NN=NN1CCCc1ccccc1
inactive: NCI-H522 13.5 µM | K562 > 100 µM | TK-10 > 100 µM | EKVX > 100 µM | SNB-75 > 100 µM | 786-0 > 100 µM | SF-295 > 100 µM | IGROV-1 > 100 µM | OVCAR-8 > 100 µM | KM12 > 100 µM | RXF 393 > 100 µM | CCRF-CEM > 100 µM | M19-MEL > 100 µM | SNB-19 > 100 µM | NCI-H23 > 100 µM | RPMI-8226 > 100 µM

N#C/N=C(/N)NCO
inactive: NCI-H522 > 100 µM | K562 > 76 µM | TK-10 > 100 µM | EKVX > 100 µM | SNB-75 > 100 µM | 786-0 > 43.8 µM | SF-295 > 100 µM | IGROV-1 > 100 µM | OVCAR-8 > 100 µM | KM12 > 40 µM | RXF 393 16.5 µM | CCRF-CEM > 100 µM | M19-MEL > 60.5 µM | OVCAR-4 > 100 µM | SNB-19 > 100 µM | NCI-H23 > 100 µM | RPMI-8226 > 48.2 µM

CCOC(=O)NC(=O)c1cn(CCSCCOC(=O)NCCCCCCNC(=O)OCCSCCn2cc(C(=O)NC(=O)OCC)c(=O)n(C)c2=O)c(=O)n(C)c1=O
inactive: TK-10 44.3 µM | EKVX > 100 µM | SNB-75 > 100 µM | 786-0 30.3 µM | SF-295 75.7 µM | OVCAR-8 20.1 µM | RXF 393 27.6 µM | CCRF-CEM 30 µM | M19-MEL 21.4 µM | SNB-19 34 µM | NCI-H23 19.9 µM | RPMI-8226 20.5 µM

CC(NC1CCCC[C@@H]1O)c1ccccc1 (stereo not given in full)
inactive: K562 > 100 µM | TK-10 > 100 µM | EKVX > 100 µM | SNB-75 > 100 µM | 786-0 > 100 µM | SF-295 > 100 µM | IGROV-1 > 100 µM | OVCAR-8 > 100 µM | KM12 > 100 µM | RXF 393 > 100 µM | CCRF-CEM > 100 µM | M19-MEL > 100 µM | OVCAR-4 > 100 µM | SNB-19 > 100 µM | RPMI-8226 > 100 µM

O=c1nc(-c2ccccc2)scc1-c1ccccc1
inactive: NCI-H522 21 µM | K562 > 100 µM | TK-10 > 100 µM | EKVX > 100 µM | SNB-75 > 100 µM | 786-0 78.3 µM | SF-295 > 100 µM | IGROV-1 > 100 µM | OVCAR-8 > 100 µM | KM12 > 100 µM | RXF 393 74.5 µM | CCRF-CEM > 100 µM | M19-MEL > 100 µM | OVCAR-4 > 100 µM | SNB-19 59.7 µM | NCI-H23 > 100 µM | RPMI-8226 > 100 µM

CC1(c2cc3c(cc2Br)OCO3)SCCCS1
inactive: NCI-H522 1.84 µM | K562 31 µM | TK-10 33.4 µM | EKVX 77.1 µM | SNB-75 40.6 µM | 786-0 44.3 µM | SF-295 49.1 µM | IGROV-1 > 100 µM | OVCAR-8 47.5 µM | KM12 51.4 µM | RXF 393 18.3 µM | CCRF-CEM 32.1 µM | M19-MEL 39.6 µM | OVCAR-4 36.3 µM | SNB-19 47.4 µM | NCI-H23 13.3 µM | RPMI-8226 27.4 µM

Cc1cccc(C(C)(C)C)c1NC(=O)CCc1nnc(S)[nH]1
inactive: NCI-H522 > 100 µM | K562 > 100 µM | TK-10 > 100 µM | SNB-75 > 100 µM | 786-0 > 100 µM | SF-295 > 100 µM | IGROV-1 > 100 µM | OVCAR-8 > 100 µM | KM12 > 100 µM | RXF 393 > 100 µM | CCRF-CEM > 100 µM | M19-MEL > 100 µM | OVCAR-4 > 100 µM | SNB-19 > 100 µM | NCI-H23 > 100 µM | RPMI-8226 > 100 µM

CS/C(=N\C(=S)N(C)C)N(c1ccccc1)c1nc(N(C)C)s[s+]1
inactive: NCI-H522 1.47 µM | K562 2.56 µM | TK-10 40.3 µM | EKVX 16 µM | SNB-75 3.18 µM | 786-0 16.4 µM | SF-295 16.7 µM | IGROV-1 77.3 µM | OVCAR-8 10.4 µM | KM12 3.65 µM | RXF 393 14 µM | CCRF-CEM 1.88 µM | M19-MEL 3.18 µM | OVCAR-4 12.2 µM | SNB-19 32.6 µM | NCI-H23 12.4 µM | RPMI-8226 1.84 µM

CCOC(=O)C1=C(Nc2ccc(Cl)cc2Cl)OC/C1=N\NS(=O)(=O)c1ccc(C)cc1
inactive: NCI-H522 > 100 µM | K562 > 100 µM | TK-10 > 100 µM | EKVX 91.6 µM | SNB-75 > 100 µM | 786-0 > 100 µM | SF-295 > 100 µM | IGROV-1 > 100 µM | OVCAR-8 > 100 µM | KM12 > 100 µM | RXF 393 > 100 µM | CCRF-CEM > 100 µM | M19-MEL > 100 µM | OVCAR-4 > 100 µM | SNB-19 > 100 µM | NCI-H23 > 100 µM

Cc1nc2c(o1)/C(=N\c1ccccc1)c1ccccc1/C2=N/c1ccccc1
inactive: NCI-H522 33 µM | K562 33.8 µM | TK-10 > 100 µM | EKVX 79.1 µM | SNB-75 61.8 µM | 786-0 45.1 µM | SF-295 > 100 µM | IGROV-1 > 100 µM | OVCAR-8 > 100 µM | KM12 85.5 µM | RXF 393 > 100 µM | CCRF-CEM 58.2 µM | M19-MEL 55.1 µM | OVCAR-4 58.7 µM | SNB-19 > 100 µM | NCI-H23 49.2 µM | RPMI-8226 47 µM

N#CCCc1nc2ccc(Br)cc2c(=O)n1-c1ccc(O)c([N+](=O)[O-])c1
inactive: NCI-H522 15.8 µM | K562 23.9 µM | TK-10 34.7 µM | EKVX 25.5 µM | SNB-75 26.7 µM | 786-0 19.3 µM | SF-295 20.1 µM | IGROV-1 20.6 µM | OVCAR-8 26.9 µM | KM12 18.5 µM | RXF 393 18.1 µM | CCRF-CEM 19.7 µM | M19-MEL 19.4 µM | OVCAR-4 20.5 µM | NCI-H23 20.8 µM | RPMI-8226 17.3 µM

CC1=C[C@@H]2Cc3occc3C(C)(C)[C@@H]2CC1
inactive: NCI-H522 14.7 µM | K562 21.1 µM | TK-10 22.4 µM | EKVX 18 µM | SNB-75 18.1 µM | 786-0 19.4 µM | SF-295 19.5 µM | IGROV-1 > 10 µM | OVCAR-8 19.5 µM | KM12 16.9 µM | RXF 393 18.7 µM | CCRF-CEM 18.3 µM | M19-MEL 15.6 µM | OVCAR-4 29.4 µM | SNB-19 > 10 µM | NCI-H23 24.5 µM

Cc1cc(Cl)cc2c1NC(=O)C2(O)C(C)C(=O)c1ccc(Cl)cc1 (stereo not given)
inactive: NCI-H522 39.9 µM | K562 > 58.9 µM | TK-10 > 100 µM | EKVX > 81.5 µM | SNB-75 > 59.3 µM | 786-0 85.7 µM | SF-295 > 92.5 µM | IGROV-1 > 81.3 µM | OVCAR-8 > 85.9 µM | KM12 99.1 µM | RXF 393 47.8 µM | CCRF-CEM 30.2 µM | M19-MEL 12.8 µM | OVCAR-4 21.8 µM | SNB-19 > 100 µM | NCI-H23 > 72.1 µM | RPMI-8226 31.8 µM

CN(C)/N=C(\CCN1CCCC1)CC(c1ccccc1)c1c(O)c2ccccc2oc1=O (stereo not given)
inactive: NCI-H522 > 100 µM | K562 > 100 µM | TK-10 > 100 µM | EKVX > 100 µM | SNB-75 58.2 µM | 786-0 > 100 µM | SF-295 > 100 µM | IGROV-1 > 100 µM | RXF 393 > 100 µM | CCRF-CEM > 100 µM | M19-MEL > 100 µM | OVCAR-4 > 100 µM | SNB-19 > 100 µM | NCI-H23 > 100 µM | RPMI-8226 > 100 µM
